Test results as given in US10414811B2, “Protease-resistant lipidated GLP-1 analogs” (MEDIMMUNE LIMITED, priority 2015, dated 2019).
Where two headings read alike, the source gives them in different places. Numbered stars: 1 amine (or outer) side, 2 acyl side, 3 side chain; on linkers, the order of the positions; unused ones are H or OH. Square brackets hold non-standard residues; d marks the D form. Side chains are listed from the residue outwards. Peptide text beside a SMILES is read from it. * marks the point of attachment. γGlu = O=C(O)[C@H](CCC(=O)[*:2])N[*:1]; Stearoyl = CCCCCCCCCCCCCCCCCC(=O)*; Palmitoyl = CCCCCCCCCCCCCCCC(=O)*; αMeF = C[C@](N)(Cc1ccccc1)C(=O)O; αMeK = C[C@](N)(CCCCN)C(=O)O; αMeS = C[C@](N)(CO)C(=O)O; AEEA = NCCOCCOCC(=O)O; Aib = CC(C)(N)C(=O)O

What was measured:
Assay type in all cases: cell-based
GLP-1R (INS1e assay) = molecular target: T1, GLP-1R (INS1e assay) (Rattus norvegicus, UniProt P32301); test: INS1e assay, cAMP activity at GLP-1R; settings: mono-lipidated peptides
T1 construct: endogenous in cells; host or cells: INS-1E cells
T1 sequence (P32301 22-463): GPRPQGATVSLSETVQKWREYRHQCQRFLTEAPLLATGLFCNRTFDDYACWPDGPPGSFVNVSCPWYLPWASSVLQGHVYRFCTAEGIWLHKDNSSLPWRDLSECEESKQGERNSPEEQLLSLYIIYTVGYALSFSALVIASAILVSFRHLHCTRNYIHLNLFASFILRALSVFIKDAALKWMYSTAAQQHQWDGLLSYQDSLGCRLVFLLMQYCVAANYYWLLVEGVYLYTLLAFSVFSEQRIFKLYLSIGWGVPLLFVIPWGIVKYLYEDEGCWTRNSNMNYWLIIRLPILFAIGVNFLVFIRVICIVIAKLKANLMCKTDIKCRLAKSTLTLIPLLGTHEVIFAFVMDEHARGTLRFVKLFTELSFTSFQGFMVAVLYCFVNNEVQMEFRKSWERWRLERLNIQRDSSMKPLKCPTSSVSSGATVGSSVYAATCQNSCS
Procedure: cAMP levels are measured using a commercially available cAMP dynamic 2 HTRF kit (Cisbio, Cat #62AM4PEJ), following the two step protocol as per manufacturer's recommendations. In brief; anti-cAMP cryptate (donor fluorophore) and cAMP-d2 (acceptor fluorophore) are made up separately by diluting each 1/20 in conjugate & lysis buffer provided in the kit. 5 μL anti-cAMP cryptate is added to wells of the assay plate, and 5 μL cAMP-d2 is added to wells except non-specific binding (NSB) wells, to which conjugate and lysis buffer are added. […] EC50 values of the synthetic peptides determined in cAMP assays are then determined.

[1] = molecular target: T2, human glucose-dependent insulinotropic peptide receptor (GIPR) (Homo sapiens, UniProt P48546); test: cAMP assay, human GIPR cells; settings: cAMP assay
T2 construct: expressed in transfected cells
T2 sequence (P48546 22-466): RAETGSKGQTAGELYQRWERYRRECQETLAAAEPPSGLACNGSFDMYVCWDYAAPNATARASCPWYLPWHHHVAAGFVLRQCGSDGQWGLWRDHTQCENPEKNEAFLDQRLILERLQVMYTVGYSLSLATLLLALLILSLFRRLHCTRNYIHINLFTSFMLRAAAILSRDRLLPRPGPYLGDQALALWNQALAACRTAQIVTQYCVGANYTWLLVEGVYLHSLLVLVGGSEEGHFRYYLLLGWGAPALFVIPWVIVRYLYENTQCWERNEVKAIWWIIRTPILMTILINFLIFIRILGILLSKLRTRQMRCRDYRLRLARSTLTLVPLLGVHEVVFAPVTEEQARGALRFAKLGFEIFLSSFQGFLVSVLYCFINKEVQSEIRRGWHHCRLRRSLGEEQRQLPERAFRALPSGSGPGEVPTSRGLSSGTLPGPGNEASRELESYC
Method in brief: (§1)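 Peptide-stimulated cAMP measured by two-step HTRF after a 30 min room-temperature incubation with receptor-expressing cells (hGLP-1R, hGIPR at 1×10^5 cells/ml; hGCGR at 2×10^5 cells/ml). Duplicate dilutions; EC50 from 4-parameter logistic fit of % Delta F.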

[2] = molecular target: T3, human glucagon receptor (GCGR) (Homo sapiens, UniProt P47871); test: cAMP assay, human GCGR cells; settings: cAMP assay
T3 construct: expressed in transfected cells
T3 sequence (P47871 26-477): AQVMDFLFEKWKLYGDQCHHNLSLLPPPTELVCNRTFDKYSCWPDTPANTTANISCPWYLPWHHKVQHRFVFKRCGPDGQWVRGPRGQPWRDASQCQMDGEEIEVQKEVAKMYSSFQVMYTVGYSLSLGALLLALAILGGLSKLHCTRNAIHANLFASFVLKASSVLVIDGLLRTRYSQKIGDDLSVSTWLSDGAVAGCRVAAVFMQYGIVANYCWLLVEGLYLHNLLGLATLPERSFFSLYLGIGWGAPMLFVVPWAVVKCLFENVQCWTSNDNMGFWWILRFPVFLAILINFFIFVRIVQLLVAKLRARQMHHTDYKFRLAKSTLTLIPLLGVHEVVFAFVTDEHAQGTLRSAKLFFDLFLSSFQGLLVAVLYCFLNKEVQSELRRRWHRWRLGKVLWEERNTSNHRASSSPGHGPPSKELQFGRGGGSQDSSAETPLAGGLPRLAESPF
Method in brief: as §1

[3] = mean of n1 and n2, read-out: INS1e assay EC50 Mean pM GLP-1R
[4] = replicate n1, read-out: INS1e assay EC50 GLP-1R n1
[5] = replicate n2, read-out: INS1e assay EC50 GLP-1R n2
[6] = first determination (n1), read-out: Primary assay EC50 GIP-R (n1)
[7] = second determination (n2), read-out: Primary assay EC50 GIP-R (n2)
[8] = first determination (n1), read-out: Primary assay EC50 Gluc-R (n1)
[9] = second determination (n2), read-out: Primary assay EC50 Gluc-R (n2)

SMILES | EC50 (GLP-1R (INS1e assay); [3]) [pM] | EC50 (GLP-1R (INS1e assay); [4]) [pM] | EC50 (GLP-1R (INS1e assay); [5]) [pM] | EC50 [1, 6] [nM] | EC50 [1, 7] [nM] | EC50 [2, 8] [nM] | EC50 [2, 9] [nM]
CC[C@H](C)[C@H](NC(=O)[C@](C)(Cc1ccccc1)NC(=O)[C@H](CCC(=O)O)NC(=O)[C@](C)(CCCCN)NC(=O)[C@H](C)NC(=O)[C@H](C)NC(=O)[C@H](CCC(=O)O)NC(=O)CNC(=O)[C@H](CCC(=O)O)NC(=O)[C@H](CC(C)C)NC(=O)[C@](C)(Cc1ccccc1)NC(=O)[C@H](CO)NC(=O)[C@](C)(CO)NC(=O)[C@@H](NC(=O)[C@H](CC(=O)O)NC(=O)[C@H](CO)NC(=O)[C@@H](NC(=O)[C@](C)(Cc1ccccc1)NC(=O)[C@H](CO)NC(=O)CNC(=O)[C@H](CCC(=O)O)NC(=O)C(C)(C)NC(=O)[C@@H](N)Cc1c[nH]cn1)[C@@H](C)O)C(C)C)C(=O)N[C@@H](C)C(=O)N[C@@](C)(Cc1ccccc1)C(=O)N[C@H](C(=O)N[C@H](C(=O)N[C@@H](CCC(=O)O)C(=O)NCC(=O)NCC(N)=O)C(C)C)C(C)C [compound 43] (H-H[Aib]EGS[αMeF]TSDV[αMeS]S[αMeF]LEGEAA[αMeK]E[αMeF]IA[αMeF]VVEGG-NH2) | 13 | 16 | 10.5 | ≥ 31 | ≥ 31 | ≥ 31 | ≥ 31
CCCCCCCCCCCCCCCCCC(=O)NCCOCCOCC(=O)NCCOCCOCC(=O)NCCOCCOCC(=O)NCCCC[C@H](NC(=O)[C@H](C)NC(=O)[C@H](C)NC(=O)[C@H](CCC(=O)O)NC(=O)CNC(=O)[C@H](CCC(=O)O)NC(=O)[C@H](CC(C)C)NC(=O)[C@H](Cc1ccc(O)cc1)NC(=O)[C@H](CO)NC(=O)[C@](C)(CO)NC(=O)[C@@H](NC(=O)[C@H](CC(=O)O)NC(=O)[C@H](CO)NC(=O)[C@@H](NC(=O)[C@](C)(Cc1ccccc1)NC(=O)[C@H](CO)NC(=O)CNC(=O)[C@H](CCC(=O)O)NC(=O)C(C)(C)NC(=O)[C@@H](N)Cc1c[nH]cn1)[C@@H](C)O)C(C)C)C(=O)N[C@@H](CCC(=O)O)C(=O)N[C@@](C)(Cc1ccccc1)C(=O)N[C@H](C(=O)N[C@@H](C)C(=O)N[C@@](C)(Cc1ccccc1)C(=O)N[C@H](C(=O)N[C@H](C(=O)N[C@@](C)(CCCCN)C(=O)NCC(=O)NCC(N)=O)C(C)C)C(C)C)[C@@H](C)CC [compound 53] (H-H[Aib]EGS[αMeF]TSDV[αMeS]SYLEGEAAK([AEEA-AEEA-AEEA-Stearoyl])E[αMeF]IA[αMeF]VV[αMeK]GG-NH2) | 7 | 6.25 | 8.15 | ≥ 26 | ≥ 26 | ≥ 26 | ≥ 26
CCCCCCCCCCCCCCCCCC(=O)NCCOCCOCC(=O)NCCOCCOCC(=O)NCCOCCOCC(=O)NCCCC[C@H](NC(=O)[C@H](C)NC(=O)[C@H](C)NC(=O)[C@H](CCC(=O)O)NC(=O)CNC(=O)[C@H](CCC(=O)O)NC(=O)[C@H](CC(C)C)NC(=O)[C@](C)(Cc1ccccc1)NC(=O)[C@H](CO)NC(=O)[C@](C)(CO)NC(=O)[C@@H](NC(=O)[C@H](CC(=O)O)NC(=O)[C@H](CO)NC(=O)[C@@H](NC(=O)[C@](C)(Cc1ccccc1)NC(=O)[C@H](CO)NC(=O)CNC(=O)[C@H](CCC(=O)O)NC(=O)C(C)(C)NC(=O)[C@@H](N)Cc1c[nH]cn1)[C@@H](C)O)C(C)C)C(=O)N[C@@H](CCC(=O)O)C(=O)N[C@@H](Cc1ccccc1)C(=O)N[C@H](C(=O)N[C@@H](C)C(=O)N[C@@](C)(Cc1ccccc1)C(=O)N[C@H](C(=O)N[C@H](C(=O)N[C@@](C)(CCCCN)C(=O)NCC(=O)NCC(N)=O)C(C)C)C(C)C)[C@@H](C)CC [compound 54] | 6 | 2.67 | 8.37 | ≥ 26 | ≥ 26 | ≥ 26 | ≥ 26
CCCCCCCCCCCCCCCC(=O)N[C@@H](CCC(=O)NCCCC[C@H](NC(=O)[C@H](CCC(=O)O)NC(=O)[C@H](CC(C)C)NC(=O)[C@](C)(Cc1ccccc1)NC(=O)[C@H](CO)NC(=O)[C@](C)(CO)NC(=O)[C@@H](NC(=O)[C@H](CC(=O)O)NC(=O)[C@H](CO)NC(=O)[C@@H](NC(=O)[C@](C)(Cc1ccccc1)NC(=O)[C@H](CO)NC(=O)CNC(=O)[C@H](CCC(=O)O)NC(=O)C(C)(C)NC(=O)[C@@H](N)Cc1c[nH]cn1)[C@@H](C)O)C(C)C)C(=O)N[C@@H](CCC(=O)O)C(=O)N[C@@H](C)C(=O)N[C@@H](C)C(=O)N[C@@](C)(CCCCN)C(=O)N[C@@H](CCC(=O)O)C(=O)N[C@@](C)(Cc1ccccc1)C(=O)N[C@H](C(=O)N[C@@H](C)C(=O)N[C@@](C)(Cc1ccccc1)C(=O)N[C@H](C(=O)N[C@H](C(=O)N[C@@](C)(CCCCN)C(=O)NCC(=O)NCC(N)=O)C(C)C)C(C)C)[C@@H](C)CC)C(=O)O [compound 84] (H-H[Aib]EGS[αMeF]TSDV[αMeS]S[αMeF]LEK([γGlu-Palmitoyl])EAA[αMeK]E[αMeF]IA[αMeF]VV[αMeK]GG-NH2) | 560 | 455 | 665 | ≥ 27 | ≥ 27 | ≥ 27 | ≥ 27
CCCCCCCCCCCCCCCC(=O)N[C@@H](CCC(=O)NCCCC[C@H](NC(=O)[C@H](CC(=O)O)NC(=O)[C@H](CO)NC(=O)[C@@H](NC(=O)[C@](C)(Cc1ccccc1)NC(=O)[C@H](CO)NC(=O)CNC(=O)[C@H](CCC(=O)O)NC(=O)C(C)(C)NC(=O)[C@@H](N)Cc1c[nH]cn1)[C@@H](C)O)C(=O)N[C@@](C)(CO)C(=O)N[C@@H](CO)C(=O)N[C@@](C)(Cc1ccccc1)C(=O)N[C@@H](CC(C)C)C(=O)N[C@@H](CCC(=O)O)C(=O)NCC(=O)N[C@@H](CCC(=O)O)C(=O)N[C@@H](C)C(=O)N[C@@H](C)C(=O)N[C@@](C)(CCCCN)C(=O)N[C@@H](CCC(=O)O)C(=O)N[C@@](C)(Cc1ccccc1)C(=O)N[C@H](C(=O)N[C@@H](C)C(=O)N[C@@](C)(Cc1ccccc1)C(=O)N[C@H](C(=O)N[C@H](C(=O)N[C@@](C)(CCCCN)C(=O)NCC(=O)NCC(N)=O)C(C)C)C(C)C)[C@@H](C)CC)C(=O)O [compound 90] (H-H[Aib]EGS[αMeF]TSDK([γGlu-Palmitoyl])[αMeS]S[αMeF]LEGEAA[αMeK]E[αMeF]IA[αMeF]VV[αMeK]GG-NH2) | 51 | 43.4 | 58.6 | ≥ 28 | ≥ 28 | ≥ 28 | ≥ 28
CC[C@H](C)[C@H](NC(=O)[C@](C)(Cc1ccccc1)NC(=O)[C@H](CCC(=O)O)NC(=O)[C@H](CCCCNC(=O)COCCOCCNC(=O)COCCOCCNC(=O)CC[C@H](NC(=O)CCCCCCCCCCCCCCC(=O)O)C(=O)O)NC(=O)[C@H](C)NC(=O)[C@H](C)NC(=O)[C@H](CCC(=O)O)NC(=O)CNC(=O)[C@H](CCC(=O)O)NC(=O)[C@H](CC(C)C)NC(=O)[C@](C)(Cc1ccccc1)NC(=O)[C@H](CO)NC(=O)[C@](C)(CO)NC(=O)[C@@H](NC(=O)[C@H](CC(=O)O)NC(=O)[C@H](CO)NC(=O)[C@@H](NC(=O)[C@](C)(Cc1ccccc1)NC(=O)[C@H](CO)NC(=O)CNC(=O)[C@H](CCC(=O)O)NC(=O)C(C)(C)NC(=O)[C@@H](N)Cc1c[nH]cn1)[C@@H](C)O)C(C)C)C(=O)N[C@@H](C)C(=O)N[C@@](C)(Cc1ccccc1)C(=O)N[C@H](C(=O)N[C@H](C(=O)N[C@@](C)(CCCCN)C(=O)NCC(=O)NCC(N)=O)C(C)C)C(C)C [compound 109] | 6330 | 8350 | 4320 | ≥ 26 | ≥ 25.6 | ≥ 26 | ≥ 25.6
